Ends that are not written are not given here.
Key:
JNK1 = target: T1, JNK1 (Homo sapiens, UniProt P45983); assay: Fluorescence polarization (FP) competitive protein-peptide binding assay, JNK1; settings: FP competition titration of unlabeled synthetic peptide against 50 nM fluorescently labeled pep JIP3, MAPK at ~60–80% complex formation, 384-well, triplicates, average FP signal fitted; limit of quantitation ~100 μM
T1 construct: hexa-histidine; made in house; host or cells: E. coli (Rosetta pLysS)
Experimental: (§1) In addition to confirming binding in the MAPK‐docking groove, the dissociation constant (Kd) of unlabeled test peptides could also be calculated.
(§2) Dashes indicate cases where the curves could not be fitted (the Kd is above the limit of quantitation of this assay, approximately ~100 μM). Peptides are grouped in two clusters, the first being the strong JNK1 binders (frequently with little or no ERK2/p38α‐binding ability). The second group (below the magenta line) contains peptides with strong ERK2‐ and p38α‐binding capacity (but often little or no affinity toward JNK1). […] Gab3+ is the ortholog of a peptide from Gab1 which was tested as positive in the dot‐blot experiments. The two Gab3 motifs are related neither by structure nor by evolutionary origin. […]
(§3) For fluorescence polarization (FP)‐based binding affinity measurements, known MAPK‐docking groove‐binding peptides were N‐terminally labeled with carboxyfluorescein or carboxytetramethylrhodamine (for ERK2, pepRSK1: […]; for p38α, pepMK2: […] or pepMEF2A: […]; for JNK1, pep JIP3: […]). […] Subsequently, increasing amounts of chemically synthesized test peptides were added, and the FP signal was measured with a Synergy H4 (BioTek Instruments) plate reader in 384‐well plates. The Ki for each unlabeled peptide was determined by fitting the data to a competition binding equation. […]

ERK2 = target: T2, ERK2 (Homo sapiens, UniProt P28482); assay: Fluorescence polarization (FP) competitive protein-peptide binding assay, ERK2; settings: FP competition titration of unlabeled synthetic peptide against 50 nM fluorescently labeled pepRSK1, MAPK at ~60–80% complex formation, 384-well, triplicates, average FP signal fitted; limit of quantitation ~100 μM
T2 construct: hexa-histidine; made in house; host or cells: E. coli (Rosetta pLysS)
Experimental: as §1, §2, §3

p38α = target: T3, p38α (Homo sapiens, UniProt Q16539); assay: Fluorescence polarization (FP) competitive protein-peptide binding assay, p38α; settings: FP competition titration of unlabeled synthetic peptide against 50 nM fluorescently labeled pepMK2 or pepMEF2A, MAPK at ~60–80% complex formation, 384-well, triplicates, average FP signal fitted; limit of quantitation ~100 μM
T3 construct: hexa-histidine; made in house; host or cells: E. coli (Rosetta pLysS)
Experimental: as §1, §2, §3

T3 sequence (Q16539 whole entry): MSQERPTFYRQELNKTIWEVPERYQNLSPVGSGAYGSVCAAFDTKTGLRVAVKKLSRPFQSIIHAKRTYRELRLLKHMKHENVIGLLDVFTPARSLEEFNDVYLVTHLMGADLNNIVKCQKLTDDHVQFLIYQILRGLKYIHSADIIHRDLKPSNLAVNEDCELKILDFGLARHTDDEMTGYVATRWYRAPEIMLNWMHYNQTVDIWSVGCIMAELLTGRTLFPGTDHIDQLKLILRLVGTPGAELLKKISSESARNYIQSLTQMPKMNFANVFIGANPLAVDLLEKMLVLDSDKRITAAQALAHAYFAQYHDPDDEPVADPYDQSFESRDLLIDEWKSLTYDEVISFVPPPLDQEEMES
T1 sequence (P45983 whole entry): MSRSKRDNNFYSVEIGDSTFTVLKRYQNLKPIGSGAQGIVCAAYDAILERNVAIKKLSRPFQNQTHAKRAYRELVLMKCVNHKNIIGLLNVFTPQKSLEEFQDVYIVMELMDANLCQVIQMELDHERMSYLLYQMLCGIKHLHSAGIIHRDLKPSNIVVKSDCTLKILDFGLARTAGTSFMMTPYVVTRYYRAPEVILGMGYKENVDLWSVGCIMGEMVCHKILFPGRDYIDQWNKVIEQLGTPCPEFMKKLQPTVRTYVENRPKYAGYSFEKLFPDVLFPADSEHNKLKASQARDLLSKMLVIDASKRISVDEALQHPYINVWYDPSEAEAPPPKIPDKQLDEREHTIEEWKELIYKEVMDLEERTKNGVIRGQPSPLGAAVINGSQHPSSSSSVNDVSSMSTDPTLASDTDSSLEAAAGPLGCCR
T2 sequence (P28482 whole entry): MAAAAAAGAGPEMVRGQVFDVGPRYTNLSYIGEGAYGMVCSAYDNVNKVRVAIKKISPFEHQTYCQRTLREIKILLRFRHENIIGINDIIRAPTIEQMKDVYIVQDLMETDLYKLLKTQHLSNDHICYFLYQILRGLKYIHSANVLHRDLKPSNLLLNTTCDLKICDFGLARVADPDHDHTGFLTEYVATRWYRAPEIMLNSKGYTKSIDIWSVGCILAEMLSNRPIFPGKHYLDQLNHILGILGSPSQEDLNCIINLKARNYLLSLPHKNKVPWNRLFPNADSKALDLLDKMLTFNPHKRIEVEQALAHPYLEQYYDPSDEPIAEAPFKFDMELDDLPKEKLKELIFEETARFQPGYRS

Sequence: KPQRKSRPPPLDLRNLS [GAB3+]
- Kd (JNK1): 13.2 µM
- Kd (ERK2): 0.7 µM
- Kd (p38α): 2 µM

— article PMC4670726, “Systematic discovery of linear binding motifs targeting an ancient protein interaction surface on MAP kinases” (Molecular Systems Biology, 2015)
